# Assay results as given in patent publication US20120190613A1, “ECHINOCANDIN DERIVATIVES” (priority 2009, published 2012).
# Like-named read-outs stand apart in the source and are kept apart here. Marks after values point to notes of the source that are not given here.
# Key:
# [1] = system: C. albicans 104 ATCC 90028; experiment: MIC by broth microdilution against C. albicans; assay type: cell-based
# Method: (§1) MIC values (μg/mL) of echinocandin class compounds of the invention against various Candida and Aspergillus species were obtained as follows. Test organisms were obtained from the American Type Culture Collection (Manassas, Va.). The isolates were maintained at −80 ° C., then thawed and sub-cultured one day prior to testing (seven days for Aspergillus strains).
# (§2) The mouse serum was heat-inactivated for 30 minutes at 56° C., and filtered through a 0.2 μm low protein binding filter unit prior to use.
# (§3) MIC values were determined using broth microdilution. The wells of the daughter plates ultimately contained 180 μL of RPMI-1640 medium with and without mouse serum, 10 μL of drug solution, and 10 μL of yeast or fungal inoculum.
# (§4) Prior to susceptibility testing, fungal isolates were removed from frozen storage, thawed at room temperature, and subcultured to Potato Dextrose Agar. The Candida strains were incubated overnight at 35° C. and the Aspergillus strains for 7 days at 25° C. Yeast colonies were inoculated into sterile saline and adjusted to the turbidity of a 0.5 McFarland standard. Inoculums from Aspergillus strains were prepared by washing the surface of an agar slant with 1 mL of sterile saline containing 0.05% of Tween 20. The resulting colloidial suspensions were adjusted to an optical density of 0.09 to 0.11 at λ 625 nm.
# (§5) Both the yeast and filamentous fungus suspensions were further diluted 1:100 in RPMI-1640 medium and dispensed into sterile reservoirs and used to inoculate the daughter plates. 10 μL of standardized inoculum was delivered into each well. This yielded a final cell concentration in the daughter plates of approximately 2.5×10^3 colony-forming units/mL. Plates were incubated at 35° C. for approximately 48 hr.
# (§6) Following incubation, microplates were viewed from the bottom using a plate viewer.
# [2] = system: C. parapsilosis 630 ATCC 90018; experiment: MIC by broth microdilution against C. parapsilosis; assay type: cell-based
# Method: as §1, §2, §3, §4, §5, §6
# A. flavus 626 ATCC 64025 = experiment: MIC by broth microdilution against A. flavus; assay type: cell-based; settings: 48 hr, growth reduction of 50%
# Method: as §1, §2, §3, §4, §5, §6
# C. albicans R303 = experiment: Mouse candidiasis infection model, C. albicans density in kidneys; assay type: in vivo, female CD-1 mice; settings: for Difference from 24-hr control / Mean log10 CFU/kidneys (±SD) / Difference from 24-h control / Mean log10 CFU/kidneys (±SEM): kidneys at 24 hr; for Difference from 24-h control / Mean log10 CFU/kidneys (±SEM): Fourth run; for Reduction of yeast density in kidneys: 5 mg/kg dose, versus 24-hr infected control
# Method: The objective of these studies was to evaluate the efficacy of test compounds in the mouse candidiasis infection model.
# The strain, C. albicans R303 was transferred from frozen storage onto Sabauroud dextrose agar (SDA) plates and grown for ˜24 hr at 35° C. The inoculum was prepared by transferring colonies from the plate to phosphate buffered saline (PBS) and the concentration adjusted to 10^6 CFU/mL with the aid of a spectrophotometer. The stock was diluted 1:9 to prepare the inoculum. Prior to each run the concentration was verified using the dilution plate count method.
# The female CD-1 mice used in this study were obtained from Charles River Laboratories, Portage, MI. The animals were approximately seven-weeks-old at the start of the study and weighed about 16-26 g.
# In one approach, mice were made neutropenic with IP injections of cyclophosphamide (150 mg/kg in 10 mL/kg) at 4 and 1 day before inoculation. Each animal was inoculated with the appropriate concentration by injecting 0.1 mL of inoculum into a tail vein. The test compounds were administered IP at 2 hr after infection.
# The kidneys were collected from four mice in control group 1 (untreated) at 2 hr after infection, and from the remaining mice in the study at 24 hr after infection. Kidneys were removed aseptically from each mouse and were combined in a sterile tube. An aliquot (2 mL) of sterile PBS was added to each tube and the contents homogenized with a tissue homogenizer (Polytron 3100). Serial dilutions of the tissue homogenates were conducted and 0.1 mL aliquots were spread on SDA plates and the plates incubated at 35° C. overnight. The CFU/kidneys were determined from colony counts. Data were analyzed using one-way ANOVA with the Tukey-Kramer Multiple Comparisons Test (GraphPad InStat version 3.06, GraphPad Software, San Diego, Calif.).
# Treatments were administered at 2 hr after infection with 2.1×10^5 CFU/mL of the organism. Data are the means of four mice.
# Treatments were administered at 2 hr after infection with 6.4×10^5 CFU/mL of the organism. Data are the means of four mice.
# Treatments were administered at 2 hr after infection with 3.8×10^5 CFU/mL of the organism. Data are the means of four mice.
# Treatments were administered at 2 hr after infection with 3.8×10^5 CFU/rnL of the organism. Data are the means of four mice.
# [3] = First run, 1 mg/kg IP 2 hr after infection
# [4] = First run, 1 mg/kg IP 2 hr after infection, neutropenic mice
# [5] = 0.5 mg/kg IP 2 hr after infection
# [6] = 1.5 mg/kg IP 2 hr after infection
# [7] = 4.5 mg/kg IP 2 hr after infection
# [8] = Second run, 1 mg/kg IP 2 hr after infection
# [9] = First run, 5 mg/kg IP 2 hr after infection
# [10] = First run, 5 mg/kg IP 2 hr after infection, neutropenic mice
SMILES,Difference from 24-hr control (C. albicans R303; [3]),Mean log10 CFU/kidneys (±SD) (C. albicans R303; [4]) [log10 CFU/kidneys],"MIC ([1]; 0% mouse serum, 48 hr) [mg/L]","MIC ([1]; 50% mouse serum, 48 hr) [mg/L]","MIC ([2]; 0% mouse serum, 48 hr) [mg/L]","MIC ([2]; 50% mouse serum, 48 hr) [mg/L]",MIC (A. flavus 626 ATCC 64025; 0% mouse serum) [mg/L],MIC (A. flavus 626 ATCC 64025; 50% mouse serum) [mg/L],Difference from 24-hr control (C. albicans R303; [9]),Mean log10 CFU/kidneys (±SD) (C. albicans R303; [10]) [log10 CFU/kidneys],Reduction of yeast density in kidneys (C. albicans R303; First run) [logs],other results
"CC[C@H](C)C[C@H](C)CCCCCCCCC(=O)N[C@H]1C[C@@H](O)[C@@H](NCCN)NC(=O)[C@@H]2[C@@H](O)CCN2C(=O)[C@H]([C@H](O)CCN)NC(=O)[C@H]([C@H](O)[C@@H](O)c2ccc(O)cc2)NC(=O)[C@@H]2C[C@@H](O)CN2C(=O)[C@H]([C@@H](C)O)NC1=O [Caspofungin, caspofungin, reference compound]",−3.14*** log10 CFU/kidneys,1.63 ± 0.29,,,,,,,,,,"MIC ([1]; Candida albicans, ATCC90028, 48 h, 0% mouse serum): 0.125 mg/L; MIC ([1]; Candida albicans, ATCC90028, 50% mouse serum, 48 hr, read-out: MIC): 0.06 mg/L; MIC ([2]; Lodderomyces parapsilosis, ATCC90018, 48 h, 0% mouse serum, read-out: MIC): 0.5 mg/L; MIC ([2]; Lodderomyces parapsilosis, ATCC90018, 48 h, 50% mouse serum, read-out: MIC): 2 mg/L; MIC (A. flavus 626 ATCC 64025; Aspergillus flavus, ATCC64025, 0% mouse serum, read-out: MIC): 0.06 mg/L; Difference from 24-h control (C. albicans R303; [5]): −4.88*** log10 CFU/kidneys; Mean log10 CFU/kidneys (±SEM) (C. albicans R303; [5]): 0.33 ± 0.33 log10 CFU/kidneys; Difference from 24-h control (C. albicans R303; [6]): −4.48*** log10 CFU/kidneys; Mean log10 CFU/kidneys (±SEM) (C. albicans R303; [6]): 0.73 ± 0.42 log10 CFU/kidneys; Difference from 24-h control (C. albicans R303; [7]): −5.20*** log10 CFU/kidneys; Mean log10 CFU/kidneys (±SEM) (C. albicans R303; [7]): 0.00 ± 0.00 log10 CFU/kidneys; Difference from 24-hr control (C. albicans R303; [8]): −3.59*** log10 CFU/kidneys; Mean log10 CFU/kidneys (±SD) (C. albicans R303; [8]): 1.61 ± 0.23 log10 CFU/kidneys"
CCC(C)CC(C)CCCCCCCCC(=O)NC1CC(O)C(NCCNC(=O)OCCOC)NC(=O)C2C(O)CCN2C(=O)C(C(O)CCN)NC(=O)C(C(O)C(O)c2ccc(O)cc2)NC(=O)C2CC(O)CN2C(=O)C(C(C)O)NC1=O (centres unmarked) [Compound 1],−0.13 ns log10 CFU/kidneys,4.65 ± 0.26,0.5,1,2,>16,0.125,0.5,−2.87*** log10 CFU/kidneys,1.90 ± 0.21,2.87,
CCC(C)CC(C)CCCCCCCCC(=O)NC1CC(O)C(NCCNC(=O)OCCOC)NC(=O)C2C(O)CCN2C(=O)C(C(O)CCNC(=O)OCCOC)NC(=O)C(C(O)C(O)c2ccc(O)cc2)NC(=O)C2CC(O)CN2C(=O)C(C(C)O)NC1=O (centres unmarked) [Compound 2],0.33 ns log10 CFU/kidneys,5.10 ± 0.28,4,>16,16,>16,,4,0.37 ns log10 CFU/kidneys,5.14 ± 0.25,,
CCC(C)CC(C)CCCCCCCCC(=O)NC1CC(O)C(NCCNC(=O)CCCCCCCOCCOCCOCCOCCOCCOCCOCCOC)NC(=O)C2C(O)CCN2C(=O)C(C(O)CCNC(=O)CCCCCCCOCCOCCOCCOCCOCCOCCOCCOC)NC(=O)C(C(O)C(O)c2ccc(O)cc2)NC(=O)C2CC(O)CN2C(=O)C(C(C)O)NC1=O (centres unmarked) [Compound 4],0.48 ns log10 CFU/kidneys,5.25 ± 0.09,8,>16,>16,>16,16,,0.60 ns log10 CFU/kidneys,5.37 ± 0.11,,
CCCCCOc1ccc(-c2ccc(-c3ccc(C(=O)NC4CC(O)C(OCCOCCOCCOCCOC)NC(=O)C5C(O)C(C)CN5C(=O)C(C(C)O)NC(=O)C(C(O)C(O)c5ccc(O)cc5)NC(=O)C5CC(O)CN5C(=O)C(C(C)O)NC4=O)cc3)cc2)cc1 (centres unmarked) [Compound 5],0.00 ns log10 CFU/kidneys,4.77 ± 0.06,2,2,>16,>16,0.125,0.5,−1.76*** log10 CFU/kidneys,3.01 ± 0.41,1.76,
CCCCCOc1ccc(-c2ccc(-c3ccc(C(=O)NC4CC(O)C(OCCCCCCOCCOCCOCCOCCOCCOCCOCCOC)NC(=O)C5C(O)C(C)CN5C(=O)C(C(C)O)NC(=O)C(C(O)C(O)c5ccc(O)cc5)NC(=O)C5CC(O)CN5C(=O)C(C(C)O)NC4=O)cc3)cc2)cc1 (centres unmarked) [Compound 7],0.50 ns log10 CFU/kidneys,5.27 ± 0.17,2,>16,>16,>16,0.25,2,0.31 ns log10 CFU/kidneys,5.08 ± 0.19,,
